Patent publication US20190225650A1, “PEPTIDOMIMETIC MACROCYCLES AND USE THEREOF IN REGULATING HIF1ALPHA” (AILERON THERAPEUTICS, INC., priority 2013, published 2019)
Bridge positions count the residues as written; N and C are the ends. Square brackets hold non-standard residues; d marks the D form. Peptide text beside a SMILES is read from it. R8 = C=CCCCCCC[C@@](C)(N)C(=O)O; S5 = C=CCCC[C@](C)(N)C(=O)O; Nle = CCCC[C@H](N)C(=O)O

Legend:
HRE-bla ME-180 cells [1] = experiment: Reporter gene assay (HRE-bla ME-180 HIF reporter, GeneBLAzer); assay type: cell-based, human; settings: for EC50: 24 hour normoxia
How it was run: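 A FRET β-lactamase readout of HIF transcription was used. After compound treatment in 0.3% DMSO/media under normoxic conditions, 20 μl of 6× LiveBLAzer-FRET B/G (CCF4-AM) substrate was added. Plates sat 3 hr at room temperature in the dark and were read at 409 Ex/460Em and 409Ex/530Em on a Synergy 2. Inhibition was compared against DMSO vehicle controls, with chetomin as positive control.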

HRE-bla ME-180 cells [2] = experiment: Cell proliferation assay (viability, MTT, 1% FBS); assay type: cell-based, human
How it was run: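 Viable cell number was measured with the CellTiter 96 (MTT) kit after compounds were applied for a 16 h normoxic (21% O2) pretreatment, followed by further normoxic or hypoxic (1% O2) culture. Cells: 2×10^4 ME-180 per well, Opti-MEM + 1% FBS, 0.5% DMSO vehicle.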

[3] = target: T1, flag-tagged HIF1α (AA 786-826) / His6-tagged p300 (AA 323-423) complex (Homo sapiens, UniProt Q09472); experiment: HIF1α p300 displacement assay (TR FRET, +CHAPS); assay type: binding; settings: read-out: IC50 (nM) (HIF1α_p300 Displacement + CHAPS)
T1 construct: His6-tagged p300 (AA 323-423); made in house; host or cells: E. coli (pETDuet vector)
How it was run: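 In this TR-FRET displacement format, peptides compete HIF1α C-terminal transactivation domain off p300-CH. They were preincubated 1 h at room temperature with 300 nM complex in HEPES pH 7.4/NaCl buffer with 7.5 mM CHAPS and 1 mM DTT. Anti-His-D2 (4 nM) and anti-Flag-K (0.5 μM) followed for 2 h, and a one-site fit of the fluorescence ratio gave IC50.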

EC50 (HRE-bla ME-180 cells [1])	IC50 [3]	SMILES	18 h Avg % max inhibition at top conc (HIF Rptr-24 hrs normoxia) (μM) (HRE-bla ME-180 cells [1])	Viability 1% FBS AVG (MTT V3-24 hr Normoxia) (μM) (HRE-bla ME-180 cells [2])
> 30 µM	400 to 700 nM	CC[C@H](C)[C@H](NC(=O)[C@H](Cc1ccccc1)NC(C)=O)C(=O)N[C@@H](CC(=O)O)C(=O)N[C@@H](CCC(=O)O)C(=O)N[C@@]1(C)CCCC=CCCC[C@@](C)(C(=O)N[C@@H](CC(C)C)C(=O)N[C@H](C(=O)N[C@H](C(=O)N[C@@H](CCC(=O)O)C(=O)N[C@@H](CCSC)C(=O)N[C@@H](C)C(=O)N[C@@H](CC(C)C)C(N)=O)[C@@H](C)CC)C(C)C)NC(=O)[C@H](CCSC)NC(=O)[C@H](CC(C)C)NC(=O)[C@H](C(C)C)NC1=O [SP-110] (Ac-FIDE[S5]VLM[S5]LVIEMAL-NH2; staple 5-9)	+++ (≤25 but <50: +++)	++++ (≥30: ++++)
> 30 µM	≤ 200 nM	CCCC[C@H](NC(=O)[C@H](CCC(=O)O)NC(=O)[C@]1(C)CCCC=CCCCCCC[C@@](C)(NC(=O)[C@H](CCC(=O)O)NC(=O)[C@H](C)NC(=O)[C@@H](NC(=O)[C@H](CC(N)=O)NC(=O)[C@@H](NC(=O)[C@]2(C)CCCC=CCCCCCC[C@@](C)(NC(=O)[C@H](CCC(=O)O)NC(=O)CNC(=O)[C@H](CCC(N)=O)NC(=O)[C@H](CC(C)C)NC(=O)[C@H](CC(C)C)NC(C)=O)C(=O)N[C@@H](CC(C)C)C(=O)N[C@@H](CC(C)C)C(=O)N[C@@H](CCCNC(=N)N)C(=O)N[C@@H](C)C(=O)N[C@@H](CC(C)C)C(=O)N[C@@H](CC(=O)O)C(=O)N2)C(C)C)[C@@H](C)CC)C(=O)N[C@@H](C(C)C)C(=O)N[C@@H](CC(C)C)C(=O)N[C@@H](CCCC)C(=O)N[C@@H](CO)C(=O)N[C@@H](CC(C)C)C(=O)N[C@@H](C(C)C)C(=O)N1)C(N)=O [SP-355] (Ac-LLQGE[R8]LLRALD[S5]VNIAE[R8]VL[Nle]SLV[S5]E[Nle]-NH2; staple 6-13, 19-26)	++ (≤10 but <25: ++)	++++ (≥30: ++++)
> 30 µM	> 700 nM	CC[C@H](C)[C@H](NC(=O)[C@H](CCCNC(=N)N)NC(=O)[C@H](CC(=O)O)NC(=O)[C@H](CC(C)C)NC(=O)[C@H](C)NC(=O)[C@H](CCSC)NC(=O)[C@]1(C)CCCC=CCCC[C@](C)(NC(=O)[C@H](CCSC)NC(=O)[C@H](CC(C)C)NC(=O)[C@@H](NC(=O)[C@H](CCCCN)NC(=O)[C@H](CCC(=O)O)NC(=O)[C@H](CC(=O)O)NC(=O)[C@@H](NC(=O)[C@H](Cc2ccccc2)NC(C)=O)[C@@H](C)CC)C(C)C)C(=O)N[C@@H](CC(C)C)C(=O)N[C@@H](C(C)C)C(=O)N[C@@H]([C@@H](C)CC)C(=O)N1)C(N)=O [SP-283] (Ac-FIDEKVLM[S5]LVI[S5]MALDRI-NH2; staple 9-13)	+++ (≤25 but <50: +++)	++++ (≥30: ++++)
5 to 15 µM	400 to 700 nM	CCCC[C@H](NC(=O)[C@H](CCC(=O)O)NC(=O)[C@@H](NC(=O)[C@@H](NC(=O)[C@H](CC(C)C)NC(=O)[C@]1(C)CCCC=CCCC[C@](C)(NC(=O)[C@H](C)NC(=O)[C@H](CC(=O)O)NC(=O)[C@@H](NC(=O)[C@H](Cc2ccccc2)NC(C)=O)[C@@H](C)CC)C(=O)N[C@@H]([C@@H](C)O)C(=O)N[C@@H](CC(C)C)C(=O)N[C@@H](CCCC)C(=O)N1)C(C)C)[C@@H](C)CC)C(=O)N[C@@H](C)C(=O)N[C@@H](CC(C)C)C(N)=O [SP-149] (Ac-FIDA[S5]TL[Nle][S5]LVIE[Nle]AL-NH2; staple 5-9)	++++ (≥50: ++++)	+ (<5: +)
> 30 µM	≤ 200 nM	CCCC[C@@H]1NC(=O)[C@H](CC(C)C)NC(=O)[C@H]([C@@H](C)O)NC(=O)[C@@](C)(NC(=O)[C@H](CCC(=O)O)NC(=O)[C@H](CC(=O)O)NC(=O)[C@@H](NC(=O)[C@H](Cc2ccccc2)NC(C)=O)[C@@H](C)CC)CCCC=CCCCC2(CCCC=CCCC[C@](C)(C(=O)N[C@@H](CCCC)C(=O)N[C@@H](C)C(=O)N[C@@H](CC(C)C)C(N)=O)NC(=O)[C@H]([C@@H](C)CC)NC(=O)[C@H](C(C)C)NC(=O)[C@H](CC(C)C)NC2=O)NC1=O (stereo partly shown) [SP-207]	+ (<10: +)	++++ (≥30: ++++)
> 30 µM	> 700 nM	CC[C@H](C)[C@H](NC(=O)[C@H](CCCNC(=N)N)NC(=O)[C@H](CC(=O)O)NC(=O)[C@H](CC(C)C)NC(=O)[C@H](C)NC(=O)[C@H](CCSC)NC(=O)[C@]1(C)CCCC=CCCC[C@](C)(NC(=O)[C@H](CCSC)NC(=O)[C@H](Cc2ccccc2)NC(=O)[C@@H](NC(=O)[C@H](C)NC(=O)[C@H](CCC(N)=O)NC(=O)[C@H](CC(=O)O)NC(=O)[C@@H](NC(=O)[C@H](Cc2ccccc2)NC(C)=O)[C@@H](C)CC)C(C)C)C(=O)N[C@@H](CC(C)C)C(=O)N[C@@H](C(C)C)C(=O)N[C@@H]([C@@H](C)CC)C(=O)N1)C(N)=O [SP-268] (Ac-FIDQAVFM[S5]LVI[S5]MALDRI-NH2; staple 9-13)	+++ (≤25 but <50: +++)	++++ (≥30: ++++)

The remaining lines, values behind:

SMILES	EC50 (HRE-bla ME-180 cells [1])	IC50 [3]	18 h Avg % max inhibition at top conc (HIF Rptr-24 hrs normoxia) (μM) (HRE-bla ME-180 cells [1])	Viability 1% FBS AVG (MTT V3-24 hr Normoxia) (μM) (HRE-bla ME-180 cells [2])
CCCC[C@H](NC(=O)[C@]1(C)CCCC=CCCC[C@](C)(NC(=O)[C@H](CCSC)NC(=O)[C@H](CC(C)C)NC(=O)[C@@H](NC(=O)[C@H](CCC(=O)O)NC(=O)[C@H](CCC(=O)O)NC(=O)[C@H](CC(=O)O)NC(=O)[C@@H](NC(=O)[C@H](Cc2ccccc2)NC(C)=O)[C@@H](C)CC)C(C)C)C(=O)N[C@@H](CC(C)C)C(=O)N[C@@H](C(C)C)C(=O)N[C@@H]([C@@H](C)CC)C(=O)N1)C(=O)N[C@@H](C)C(=O)N[C@@H](CC(C)C)C(N)=O [SP-225] (Ac-FIDEEVLM[S5]LVI[S5][Nle]AL-NH2; staple 9-13)	> 30 µM	> 700 nM	+++ (≤25 but <50: +++)	++++ (≥30: ++++)
CCCC[C@H](NC(=O)[C@H](CCC(=O)O)NC(=O)[C@@H](NC(=O)[C@]1(C)CCCC=CCCC[C@](C)(NC(=O)[C@@H](NC(=O)[C@H](CCC(=O)O)NC(=O)[C@H](CCC(=O)O)NC(=O)[C@H](CC(=O)O)NC(=O)[C@@H](NC(=O)[C@H](CC(N)=O)NC(=O)[C@@H](NC(=O)[C@]2(C)CCCC=CCCCCCC[C@@](C)(NC(=O)[C@H](CCC(=O)O)NC(=O)CNC(=O)[C@H](CCC(N)=O)NC(=O)[C@H](CC(C)C)NC(=O)[C@H](CC(C)C)NC(C)=O)C(=O)N[C@@H](CC(C)C)C(=O)N[C@@H](CC(C)C)C(=O)N[C@@H](CCCNC(=N)N)C(=O)N[C@@H](C)C(=O)N[C@@H](CC(C)C)C(=O)N[C@@H](CC(=O)O)C(=O)N2)C(C)C)[C@@H](C)CC)C(C)C)C(=O)N[C@@H](CCCC)C(=O)N[C@@H](CO)C(=O)N[C@@H](CC(C)C)C(=O)N1)[C@@H](C)CC)C(=O)NCC(N)=O [SP-305] (Ac-LLQGE[R8]LLRALD[S5]VNIDEEV[S5][Nle]SL[S5]IE[Nle]G-NH2; staple 6-13, 21-25)	> 30 µM	≤ 200 nM	++++ (≥50: ++++)	++++ (≥30: ++++)
CC[C@H](C)[C@H](NC(=O)[C@H](Cc1ccccc1)NC(C)=O)C(=O)N[C@@H](CC(=O)O)C(=O)N[C@@H](CCC(=O)O)C(=O)N[C@@H](CCC(=O)O)C(=O)N[C@H](C(=O)N[C@@H](CC(C)C)C(=O)N[C@@H](CCSC)C(=O)N[C@@]1(C)CCCC=CCCC[C@@](C)(C(=O)N[C@@H](CCSC)C(=O)N[C@@H](C)C(=O)N[C@@H](Cc2ccccc2)C(N)=O)NC(=O)[C@H]([C@@H](C)CC)NC(=O)[C@H](C(C)C)NC(=O)[C@H](CC(C)C)NC1=O)C(C)C [SP-226] (Ac-FIDEEVLM[S5]LVI[S5]MAF-NH2; staple 9-13)	> 30 µM	400 to 700 nM	++ (≤10 but <25: ++)	++++ (≥30: ++++)
CCCC[C@H](NC(=O)[C@H](Cc1ccccc1)NC(=O)[C@@H](NC(=O)[C@H](C)NC(=O)[C@H](CCC(N)=O)NC(=O)[C@H](CC(=O)O)NC(=O)[C@@H](NC(=O)[C@H](Cc1ccccc1)NC(C)=O)[C@@H](C)CC)C(C)C)C(=O)N[C@@]1(C)CCCC=CCCC[C@@](C)(C(=O)N[C@@H](Cc2c[nH]cn2)C(=O)N[C@@H](C)C(=O)N[C@@H](CC(C)C)C(=O)N[C@@H](CC(C)C)C(N)=O)NC(=O)[C@H]([C@@H](C)CC)NC(=O)[C@H](C(C)C)NC(=O)[C@H](CC(N)=O)NC1=O [SP-259] (Ac-FIDQAVF[Nle][S5]NVI[S5]HALL-NH2; staple 9-13)	≤ 5 µM	> 700 nM	++++ (≥50: ++++)	+ (<5: +)
